SMILES strings stand for the structures. Read-outs that look alike come from different tables or passages of the source. Where a SMILES comes first, the peptide text is derived from it. Bridges are numbered along the chain shown (N, C = ends). [ ]: non-standard residue; d: D form. The star is where a group is joined. Hexanoyl(3R-OH,5-Me) = CC(C)C[C@@H](O)CC(=O)*; dNMeF = CN[C@H](Cc1ccccc1)C(=O)O

A short description of assay [1]: On-bead menaquinone complexation assay (fluorescence of 2H). Particulars: single library bead (hit beads >1000 a.u.); average of three readings. The class given is binding. On the procedure:
Next, the feasibility of the on-bead complexation assay was assessed using bead-linked lysocin E 30 and MK-4 (2). Our initial assay based on the finding that 1 and 2 form a red precipitate upon complexation (Supplementary Fig. 2) was not robust, because the magnitude of the red color was not proportional to the amount of captured 2 (Fig. 2b, c). We therefore developed a fluorescence-based method for quantifying 2 by reducing its naphthoquinone moiety to fluorescent hydroquinone 2H. One bead of 30 was incubated with 2 in MeOH, washed by MeOH in a microplate well, and then the bead-bound 2 was eluted under more forcing hydrophobic conditions (n-BuOH at 50 °C). The eluate containing 2 was treated with NaBH4 in n-BuOH to produce 2H[46]. The fluorescence intensity of 2H was evaluated to determine the quantity of 2 bound to one bead of 30. The method was found with a small margin of error (1026 ± 64 a.u.), indicating its high accuracy (Fig. 2a and Supplementary Fig. 3). Importantly, the structure of 1 remained intact during the complexation assay as judged by UHPLC and mass analyses.
General procedures for menaquinone complexation assay. To the bead-linked lysocin E analogues in LibraTube was added a solution of menaquinone-4 (2) in MeOH (10 mM, 1.0 mL/1000 beads). The mixture was incubated at room temperature for 12 h. A suspension of the beads in MeOH (200 beads/200 µL) was transferred to a 2.0 mL microtube.
Each bead in the microtube was transferred to each well of a 96-well filtration plate (278011, Thermo Fisher Scientific, 1 bead/well) with the solution of 2 (20 µL/bead) using a micropipette. To each well was added MeOH (400 µL), and the beads was filtered by gravity flow (× 3). The beads in the plate were dried under vacuum for 0.5–1 h. The dried beads were transferred to a 96-well PCR plate (652270, Greiner bio-one, 1 bead/well) with MeOH (20 µL/well) using a micropipette. The solution was removed under a stream of Ar at 40 °C to give the 2-bound bead-linked peptides.
To the 2-bound bead-linked peptides in the plate was added n-BuOH (30 µL/well) at room temperature .
The suspension was incubated at 50 °C for 1 h. The resultant mixture in the plate was centrifuged at 3500 × g at room temperature for 10 sec . The supernatant in each well was transferred to the corresponding well of a black polystyrene flat -bottom 96-well plate (655086, Greiner bio-one). The solution was concentrated under a stream of Ar at 40 °C to give the eluted 2.
To the above eluted 2 in the plate was added n-BuOH (25 µL/well) at room temperature. The plate was vortexed at room temperature for 10 min. To the resultant solution was added a solution of NaBH4 in n-BuOH (1.0 mM, 25 µL/well). The plate was vortexed at room temperature for 10 min. The fluorescence of menahydroquinone (2H, Ex. 250 nm/Em. 430 nm) of each well was measured at room temperature every 3 min (0, 3, and 6 min) on Gemini EM microplate reader (Molecular Devices) . The three fluorescence intensities of each bead were averaged and plotted against the bead number.
Evaluation of menaquinone complexation activities of the selected bead-linked peptides. Bead-linked peptides 30, BLP1, and BLP2 were synthesized according to the above described procedures (loading rate:
0.222 mmol/g). The bead-linked peptides were subjected to the MK complexation assay described above.
The obtained fluorescent intensities of 2H (arbitrary unit) were 1026 ± 64 for 30, 396 ± 27 for BLP1, 72.9 ± 2.0 for BLP2, and 41.6 ± 0.1 for background adsorption (no bead), respectively (Supplementary Figure 3).

A short description of assay [2]: Liposomal membrane disruption assay (carboxyfluorescein LUVs). In kind it is biochemical. On the procedure: Preparation of LUVs consisting of PC/PG/MK-4 or PC/PG/UQ-10. To a solution of egg yolk phosphatidylcholine (9.48 mg, 12.4 µmol) and egg yolk phosphatidylglycerol (9.66 mg, 12.4 µmol) in CHCl3 (0.208 mL) was added a solution of MK-4 (2) or UQ-10 (3) (0.313 µmol) in CHCl3 (21.8 µL). The solution was concentrated, and dried under vacuum to for m a lipid thin film. The thin film was hydrated and suspended in carboxyfluorescein-containing buffer solution (0.500 mL, 5 mM HEPES, 20 mM carboxyfluorescein , pH 7.5) by vortexing and sonication. After five-times freeze-thaw cycles, the lipid suspension was extruded 19 times through a polycarbonate filter with 0.40 µm of pore siz e in the diameter.
The external carboxyfluorescein -containing buffer was replaced with a carboxyfluorescein -free buffer solution (20 mM HEPES, 1 mM EDTA, pH 7.5) through size exclusion chromatography using disposable PD -10 column. Concentration of egg yolk phosphatidylcholine was determined by using Phospholipid C -Test Wako.
The final concentration of egg yolk phosphatidylcholine was adjusted to 4.0 µM with the carboxyfluorescein -free buffer solution, and the solution was used for membrane disruption ass ay.
Membrane disruption assay. Peptides 1, A1–A22, B1–B5, and C1–C5 were diluted with MeOH/H2O (4/6) to various concentrations as 5-fold serial dilutions. The solution of peptides (2 µL/well) and the carboxyfluorescein-encapsulated LUV suspension (200 µL/well) were mixed in black polystyrene flat-bottom 96-well plates. The final concentration of peptides ranged from 2970 nM to 0.950 nM. The plates were vortexed at room temperature for 30 min, and then fluorescence of carboxyfluorescein (Ex. 490 nm/Em. 517 nm) of each well was measured at room temperature on Gemini EM microplate reader. Trion X-100/H2O (5/95, 2 µL), MeOH/H2O (4/6, 2 µL), and the LUV suspension were mixed in each plate to determine 100% lysis. MeOH/H2O (4/6, 2 µL) and the LUV suspension were mixed in each plate to determine 0% lysis.
The membrane disruption activities of tested peptides (I) were normalized against 100% lysis by Triton X -100 […]
(Imax) and 0% lysis by MeOH/H2O (4/6) (I0) as following, where Ix is the fluorescence intensity (Supplementary Equation 2).
I = 100 × (Ix – I0) / (Imax – I0) (2)
The membrane-disrupting activities were evaluated as half-maximal response (EC50, nM) values by means of three replicates. Sigmoidal curve fittings were performed on R2 with drc package (Supplementary Figs S7–S9).3 Two-parameter logistic model was applied for the fitting.

Setting [3] is: PC/PG/3 LUVs, 1st experiment, read-out: EC50 PC/PG/3 1st.
The mark [4] stands for this setting: PC/PG/3 LUVs, 2nd experiment, read-out: EC50 PC/PG/3 2nd.
[5] abbreviates: PC/PG/3 LUVs, 3rd experiment, read-out: EC50 PC/PG/3 3rd.

As to `CC[C@H](C)[C@@H]1NC(=O)[C@@H](Cc2c[nH]c3ccccc23)NC(=O)[C@@H](CCC(N)=O)NC(=O)[C@H](CCC(=O)O)NC(=O)[C@@H](CCCNC(=N)N)NC(=O)[C@H](CC(C)C)NC(=O)[C@@H](Cc2ccccc2)N(C)C(=O)CNC(=O)[C@H](CO)NC(=O)[C@@H](CCCNC(=N)N)NC(=O)[C@@H](NC(=O)C[C@H](O)CC(C)C)[C@@H](C)OC(=O)[C@H]([C@@H](C)O)NC1=O` [Peptide 1, Lysocin E] ({Hexanoyl(3R-OH,5-Me)}-T[dR]SG[dNMeF]L[dR]E[dQ][dW]IT; ester 1-C), the “fluorescence intensity of 2H” value in assay [1] was determined as 1369.78 a.u. In addition, the EC50 in assay [2] (30 min, room temperature, mean ± SD of three independent experiments, read-out: EC50 PC/PG/3) was 92 nM; in assay [2] (setting [3]) it was 58 nM; in assay [2] (setting [4]), 167 nM; in assay [2] (setting [5]), 51.6 nM.

On to `CC[C@H](C)[C@@H]1NC(=O)[C@@H](Cc2c[nH]c3ccccc23)NC(=O)[C@@H](C(C)C)NC(=O)[C@H](CCC(=O)O)NC(=O)[C@@H](CCCNC(=N)N)NC(=O)[C@H](CC(C)C)NC(=O)[C@@H](Cc2ccccc2)N(C)C(=O)CNC(=O)[C@H](C)NC(=O)[C@@H](CCCNC(=N)N)NC(=O)[C@@H](NC(=O)C[C@H](O)CC(C)C)[C@@H](C)OC(=O)[C@H]([C@@H](C)O)NC1=O` [Peptide A2] ({Hexanoyl(3R-OH,5-Me)}-T[dR]AG[dNMeF]L[dR]E[dV][dW]IT; ester 1-C), for which the “fluorescence intensity of 2H” value in assay [1] is 1152.24 a.u. In addition, the results for the EC50 in assay [2] (setting [3]), in assay [2] (setting [4]) and in assay [2] (setting [5]) were 89.7 nM, 133 nM and 57.5 nM, respectively.

The record behind these values is paper PMC6611794, “Development of a high-throughput strategy for discovery of potent analogues of antibiotic lysocin E” (Nature Communications, 2019).
